Entries after “also recorded” stand apart in the source; their conditions may differ. Bridge positions count the residues as written; N and C are the ends.

Data set [1] has as its system SARS-CoV-2 BA.5. Type of data set: cell-based.
Data set [2] has as its target T1, recombinant furin (Homo sapiens, UniProt P09958).
T1 construct: purchased Bachem (so in the source) 1503-SE-010
The data set can be described thus: Furin activity assay. Format: biochemical. The method, then:
Furin activity assay was conducted as described previously with slight changes.^[ [42] ^] In brief, Trypstatin was mixed with recombinant furin (Bachem #1503‐SE‐010, final concentration 1.0 ng µL^−1) in assay buffer (25 mM Tris, 1 mM CaCl2, pH 9) for 30 min at room temperature before the addition of […] ‐L‐pyroglutamyl‐modified RTKR‐ AMC substrate (Bachem #4018149) per well with a final concentration of 1 mM CaCl2 in water. Fluorescence intensity was recorded in 2 min intervals for 5 h at an excitation wavelength of 355 nm and emission wavelength of 460 nm at 37 °C in a Cytation 3 (BioTek) microplate reader. The area under the curve values were normalized to the furin control. Hexa‐D‐arginine served as inhibitor control.

For data set [3], the target named is T2, TMPRSS2 Syrian gold hamster (Mesocricetus auratus, UniProt A0A1U8C7C8).
T2 construct: encoding the respective transmembrane serine protease per well; host or cells: HEK293T
T2 sequence (A0A1U8C7C8 1-492): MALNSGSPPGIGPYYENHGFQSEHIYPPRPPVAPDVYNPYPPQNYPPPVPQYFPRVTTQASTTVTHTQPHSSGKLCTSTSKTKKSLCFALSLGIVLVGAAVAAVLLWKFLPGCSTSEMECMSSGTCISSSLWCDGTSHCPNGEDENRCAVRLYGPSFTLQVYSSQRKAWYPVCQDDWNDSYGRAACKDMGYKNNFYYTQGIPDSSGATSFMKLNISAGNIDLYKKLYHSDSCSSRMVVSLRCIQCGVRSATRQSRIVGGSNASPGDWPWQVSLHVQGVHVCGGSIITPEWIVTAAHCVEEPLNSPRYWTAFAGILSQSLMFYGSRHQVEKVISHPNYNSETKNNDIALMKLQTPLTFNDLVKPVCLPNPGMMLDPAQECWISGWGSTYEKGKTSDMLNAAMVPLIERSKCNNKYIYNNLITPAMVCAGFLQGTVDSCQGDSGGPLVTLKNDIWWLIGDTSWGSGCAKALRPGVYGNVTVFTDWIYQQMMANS
The data set is described as follows: Cellular hamster TMPRSS2 activity assay in transfected HEK293T cells. Format: cell-based. The settings on record: compared with human TMPRSS2. The method, then: Twenty thousand HEK293T cells were seeded in a 96‐well flat bottom plate. The next day, cells were transfected with 100 ng of an expression plasmid (Backbone: Twist Bioscience, EF1alpha mammalian expression vector) encoding the respective transmembrane serine protease per well using LT1 transfection reagent (TMPRSS2 human NCBI RefSeq: NP_005647.3; TMPRSS2 Syrian gold hamster NCBI RefSeq: XP_012971683.1; TMPRSS11D NCBI RefSeq: NP_004253.1; TMPRSS13 NCBI RefSeq: NP_001070731.1). In short, plasmid DNA was mixed in a 1:3 ratio with LT1 in a serum‐free medium and incubated for 20 min before the mixture was applied dropwise onto the cells. Sixteen hours post‐transfection, the medium was replaced by a serum‐free medium, and cells were treated with serial dilution of compounds in PBS. After 15 min of incubation at 37 °C, 100 µM of respective protease‐specific substrate (TMPRSS2: Boc‐QAR‐AMC, Bachem # 4017019; TMPRSS11D: Boc‐FSR‐AMC, Bachem # 4012340; TMPRSS13: Pyr‐RTKR‐AMC, Bachem #4018149) was added and incubated for 2 h at 37 °C. Fluorescence intensity was recorded at an excitation wavelength of 380 nm and emission wavelength of 460 nm in a Synergy H1 microplate reader (BioTek) with Gen 5 3.04 software. Values were background corrected for non‐transfected HEK293T‐cells. […]

In data set [4] the target is T3, cathepsin L (Homo sapiens, UniProt P07711).
T3 construct: purchased R&D 952-Cy
T3 sequence (P07711 114-333): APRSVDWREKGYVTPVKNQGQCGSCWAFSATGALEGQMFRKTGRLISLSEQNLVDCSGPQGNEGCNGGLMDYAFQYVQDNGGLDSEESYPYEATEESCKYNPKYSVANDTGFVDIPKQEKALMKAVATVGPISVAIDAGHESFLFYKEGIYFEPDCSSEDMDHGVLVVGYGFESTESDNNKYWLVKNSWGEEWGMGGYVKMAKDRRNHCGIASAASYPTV
The data set can be described thus: Cathepsin L activity assay. Type of data set: biochemical. The settings on record: recombinant enzyme. The method, then: (§1) Cathepsin enzyme activity assays were performed as described before.^[ [42] ^] In brief, serially diluted compounds were mixed with recombinant cathepsin L (R&D #952‐Cy) in assay buffer (50 mM MES, 5 mM DTT, 1 mM EDTA, 0.005% Brij35, pH 6) or with cathepsin B from human placenta (Sigma Aldrich #C0150) in assay buffer (105.6 mM KH2PO4, 14.4 mM Na2HPO4, 1.2 mM EDTA, 0.07% Brij35, 2.4 mM L‐cysteine, pH 6). The protease‐inhibitor mixtures were incubated for 10 min at RT before the addition of the respective fluorogenic reporter substrate Z‐Leu‐Arg‐AMC (for cathepsin L; Bachem #4034611) or Z‐Arg‐Arg‐AMC (for cathepsin B; Bachem #4004789). The final concentrations were as follows: Cathepsin L 0.01 µg mL^−1, cathepsin B 1 µg mL^−1, Z‐Leu‐Arg‐AMC 40 µM or Z‐Arg‐Arg‐AMC 30 µM. Fluorescence intensity was recorded at an excitation wavelength of 380 nm and emission wavelength of 460 nm after 25 min at 37 °C (cathepsin L) or after 60 min at 40 °C (cathepsin B) in a Synergy H1 microplate reader (BioTek) with Gen 5 3.04 software.

Data set [5] relates to SARS-CoV-2 Delta. The settings on record: hamster, in vivo.
The test system of data set [6] is Caco-2 cells. The data set is described as follows: Cytotoxicity assay (CellTiter-Glo). Type of data set: cell-based, human. The settings on record: 48 h, ATP levels, tested concentrations. The method, then: To assess the cytotoxicity of the inhibitors used, 10 000 Caco2 cells were seeded in a 96‐well flat bottom plate. The next day, the medium was replaced and cells were treated with serial dilutions of compounds or PBS as a control. After 48 h, cell viability was assessed by measuring ATP levels in cell lysates with a commercially available kit (CellTiter‐Glo, Promega) in an Orion II microplate reader with Simplicity 4.2 software.
In general terms: Cellular ATP, detected with luciferase, serves as a proxy for viable cell number.

In data set [7] the target is T4, cathepsin B from human placenta (Homo sapiens, UniProt P07858).
T4 construct: cathepsin B from human placenta (Sigma Aldrich #C0150); purchased Sigma Aldrich C0150; host or cells: human placenta (tissue-derived)
The data set can be described thus: Cathepsin B activity assay. The settings on record: enzyme from human placenta. Format: biochemical. The method, then:
as §1

The target in data set [8] is T5, TMPRSS14 (Matriptase) (Homo sapiens, UniProt Q9Y5Y6).
T5 construct: purchased 3946
T5 sequence (Q9Y5Y6 whole entry): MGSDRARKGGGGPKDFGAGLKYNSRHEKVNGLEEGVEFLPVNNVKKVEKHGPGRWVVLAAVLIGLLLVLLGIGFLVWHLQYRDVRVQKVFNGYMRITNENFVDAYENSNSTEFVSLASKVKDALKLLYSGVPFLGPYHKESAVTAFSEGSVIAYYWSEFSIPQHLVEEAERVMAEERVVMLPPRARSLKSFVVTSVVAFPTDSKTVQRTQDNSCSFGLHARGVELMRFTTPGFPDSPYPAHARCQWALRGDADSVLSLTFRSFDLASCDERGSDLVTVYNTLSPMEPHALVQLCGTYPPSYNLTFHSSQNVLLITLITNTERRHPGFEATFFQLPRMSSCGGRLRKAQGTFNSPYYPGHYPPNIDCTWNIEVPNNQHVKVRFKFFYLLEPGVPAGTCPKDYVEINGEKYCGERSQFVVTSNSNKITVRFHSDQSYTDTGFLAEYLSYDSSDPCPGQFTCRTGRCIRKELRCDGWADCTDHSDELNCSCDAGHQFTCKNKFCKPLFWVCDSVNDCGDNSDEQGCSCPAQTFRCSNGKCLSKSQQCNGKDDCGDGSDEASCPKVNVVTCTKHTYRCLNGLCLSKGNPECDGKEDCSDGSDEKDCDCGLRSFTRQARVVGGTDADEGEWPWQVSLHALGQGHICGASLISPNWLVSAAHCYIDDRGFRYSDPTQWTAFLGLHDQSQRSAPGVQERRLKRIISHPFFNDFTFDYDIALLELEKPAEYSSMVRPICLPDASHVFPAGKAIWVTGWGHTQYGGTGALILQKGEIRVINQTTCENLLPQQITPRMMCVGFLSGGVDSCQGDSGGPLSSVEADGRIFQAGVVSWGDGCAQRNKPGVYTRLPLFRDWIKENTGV
The data set is described as follows: Recombinant TMPRSS14 activity assay. Type of data set: biochemical. The settings on record: recombinant enzyme. The method, then: In the next step, 50 µL of 20 µM BOC‐Gln‐Ala‐Arg‐AMC protease substrate (Bachem #4017019) in the case of TMPRSS2 and TMPRSS14 or 50 µL of 150 µM BOC‐Gln‐Arg‐Arg‐AMC (PeptaNova) in the case of TMPRSS1 was added and incubated for 2 h for TMPRSS2, or 5 mins in the case of TMPRSS1/14 at 37 °C. Fluorescence intensity was measured after 2 h at an excitation wavelength of 380 nm and emission wavelength of 460 nm in a SynergyTM H1 microplate reader (BioTek) with Gen5 3.04 software. […] Assays were performed in a total volume of 100 µL in quadruplicate wells of a 96 Nunc well plate (Thermo Scientific #10174221) with a final TMPRSS2 concentration of 20 nM. Initial velocities were measured in 50 s intervals for 15 min with excitation of 360 nm and emission of 460 nm in a SynergyTM H1 microplate reader. K m and V max were calculated from Michaelis–Menten plots using GraphPadPrism. The inhibitory constant K i was calculated from the IC50 values according to the Cheng–Prusoff equation (K i = IC50/(1 + [S]/K m)) for competitive reversible inhibitors.^[ [91] ^]

Data set [9] concerns the target T6, recombinant ACE2 (Homo sapiens, UniProt Q9BYF1).
T6 construct: purchased R&D 933-ZN
The data set is described as follows: Recombinant ACE2 assay. Format: biochemical. The method, then:
To determine the activity of Trypstatin against ACE2, 25 µL of 0,4 µg mL^−1 recombinant ACE2 (R&D #933‐ZN) in assay buffer (75 mM Tris, 1 M NaCl, pH 7.5) was mixed with 25 µL of inhibitor for 15 min at 37 °C before addition of 50 µL of 40 µM of MCA‐YVADAPK(Dnp)‐OH substrate (R&D #ES007) and incubation for 5 min at 37 °C. Fluorescence intensity was measured after 5 min at an excitation wavelength of 320 nm and emission wavelength of 405 nm in a SynergyTM H1 microplate reader (BioTek) with Gen5 3.04 software.

Data set [10] has as its system lentiviral pseudoparticles harboring VSV-G glycoprotein. Type of data set: cell-based.
The test system of data set [11] is IL-1ß, IL-6, CCL5, CXCL10, IRF1 expression in HAECs. Format: cell-based, human.

T6 sequence (Q9BYF1 18-805): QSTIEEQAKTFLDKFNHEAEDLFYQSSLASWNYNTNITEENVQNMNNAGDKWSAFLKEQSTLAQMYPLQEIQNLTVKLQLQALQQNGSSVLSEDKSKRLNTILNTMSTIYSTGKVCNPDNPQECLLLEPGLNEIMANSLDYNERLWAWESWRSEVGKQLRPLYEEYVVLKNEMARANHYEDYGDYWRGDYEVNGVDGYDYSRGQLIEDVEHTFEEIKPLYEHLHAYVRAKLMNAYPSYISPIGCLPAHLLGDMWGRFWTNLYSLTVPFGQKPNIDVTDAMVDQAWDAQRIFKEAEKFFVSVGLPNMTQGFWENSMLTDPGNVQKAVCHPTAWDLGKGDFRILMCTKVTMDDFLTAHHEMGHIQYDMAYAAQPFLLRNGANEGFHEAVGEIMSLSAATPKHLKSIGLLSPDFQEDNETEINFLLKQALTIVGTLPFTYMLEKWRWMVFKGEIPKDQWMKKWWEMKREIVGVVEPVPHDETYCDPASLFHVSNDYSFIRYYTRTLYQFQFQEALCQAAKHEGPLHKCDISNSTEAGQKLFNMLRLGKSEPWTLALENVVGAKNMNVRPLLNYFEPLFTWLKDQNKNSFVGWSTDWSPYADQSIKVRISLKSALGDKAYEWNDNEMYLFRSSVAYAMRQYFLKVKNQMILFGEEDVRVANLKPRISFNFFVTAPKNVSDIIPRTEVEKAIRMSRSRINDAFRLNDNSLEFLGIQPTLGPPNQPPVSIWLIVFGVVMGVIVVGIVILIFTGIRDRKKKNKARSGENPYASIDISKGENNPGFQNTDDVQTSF
T1 sequence (P09958 108-794): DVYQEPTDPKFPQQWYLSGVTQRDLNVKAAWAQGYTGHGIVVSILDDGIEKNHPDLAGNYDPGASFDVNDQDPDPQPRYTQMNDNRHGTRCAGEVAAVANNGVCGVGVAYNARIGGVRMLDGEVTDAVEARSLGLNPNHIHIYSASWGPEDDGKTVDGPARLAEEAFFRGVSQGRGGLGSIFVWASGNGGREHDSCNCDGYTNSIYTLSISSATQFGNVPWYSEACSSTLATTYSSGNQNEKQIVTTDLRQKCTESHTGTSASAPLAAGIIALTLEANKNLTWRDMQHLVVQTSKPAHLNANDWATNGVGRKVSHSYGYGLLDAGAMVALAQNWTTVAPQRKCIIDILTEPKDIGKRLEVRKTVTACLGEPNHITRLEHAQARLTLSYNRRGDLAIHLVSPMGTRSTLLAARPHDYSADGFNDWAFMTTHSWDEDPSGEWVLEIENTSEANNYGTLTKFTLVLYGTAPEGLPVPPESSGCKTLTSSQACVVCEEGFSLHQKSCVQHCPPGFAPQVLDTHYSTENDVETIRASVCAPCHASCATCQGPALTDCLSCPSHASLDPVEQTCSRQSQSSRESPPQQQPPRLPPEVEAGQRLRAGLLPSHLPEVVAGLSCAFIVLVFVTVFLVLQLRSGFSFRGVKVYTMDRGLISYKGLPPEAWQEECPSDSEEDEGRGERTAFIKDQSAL

Turning to “VAACNLPIVRGPCRAFIQLWAFDAVKGKCVLFPYGGCQGNGNKFYSEKECREYCGVPGDGD (disulfide 4-54, 13-37, 29-50 (inferred)) [Trypstatin]”, the “reduction of SARS-CoV-2 BA.5 replication over 72 h” value in data set [1] is given as “up to four orders of magnitude”. The “inhibition of Furin” value in data set [2] is listed as “did not inhibit; also recorded: does not inhibit”. Also, in data set [3], the “inhibition of hamster TMPRSS2” value was “IC50 values similar to those for human TMPRSS2; also recorded: blocks hamster and human TMPRSS2 activity with similar efficacies”. Besides, the “inhibition of Cathepsin L” value in [4] is recorded as “did not inhibit”. Further, in data set [5], the “clinical symptoms (piloerection, weakness, fatigue, abnormal posture)” value is “almost entirely absent”; the “infectious virus particles in BAL (TCID50)” value is reported as “significantly reduced”; the “side effects in hamsters” value is listed as “without observed side effects”; the “viral loads in BAL (qPCR)” value is “significantly reduced”. Also, the “cytotoxicity / cell viability” value in [6] is reported as “does not influence cell viability”. Besides, the “inhibition of Cathepsin B” value in data set [7] was “did not inhibit”. In [8], the “inhibition of TMPRSS14” value is listed as “no effect”. In addition, in [9], the “inhibition of ACE2” value is listed as “did not inhibit; also recorded: does not inhibit”. For the same sequence, the “effect on VSV-G-mediated pseudoparticle entry” value in [10] is on record as “without affecting VSV‐G‐driven entry”. Further, the “effect on expression of inflammatory genes” value in data set [11] was “failed to reach significance; also recorded: does not have a significant anti-inflammatory effect”.

(Values after paper PMC12224939, “Trypstatin as a Novel TMPRSS2 Inhibitor with Broad‐Spectrum Efficacy against Corona and Influenza Viruses” (Advanced Science, 2025).)
